Test results taken from patent US12606572B2, “Substituted heterocycles and uses thereof” (Kumquat Biosciences Inc., priority 2023, dated 2026).

Legend:
KRAS WT = biological target: T1, KRAS WT (Homo sapiens, UniProt P01116); test: HTRF assay, interaction of GST-tagged K-Ras with His-tagged hSOS1 (KRAS wildtype); type: biochemical; conditions: <500 nM, read-out: Inhibition of KRAS WT (IC50)
T1 construct: made in house; host or cells: E. coli BL21 (DE3)
Summary of the method: (§1)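 GST-K-Ras (G12S or WT) with anti-GST-Eu donor mixed with His-hSOS1 and anti-6His-XL665 acceptor in ~5 mM HEPES pH 7.4, 150 mM NaCl, 1 mM DTT, 0.05% BSA, 0.0025% Igepal. After ~10 min or longer, HTRF 665/620 nm ratio read.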

KRAS G12S = biological target: T2, KRAS G12S (Homo sapiens, UniProt P01116, G12S); test: HTRF assay, interaction of GST-tagged K-Ras with His-tagged hSOS1 (KRAS G12S); type: biochemical; conditions: <500 nM, read-out: Inhibition of KRAS G12S (IC50)
T2 construct: made in house; host or cells: E. coli BL21 (DE3)
Summary of the method: as §1

T2 sequence (P01116 1-188 isoform P01116-2 G12S): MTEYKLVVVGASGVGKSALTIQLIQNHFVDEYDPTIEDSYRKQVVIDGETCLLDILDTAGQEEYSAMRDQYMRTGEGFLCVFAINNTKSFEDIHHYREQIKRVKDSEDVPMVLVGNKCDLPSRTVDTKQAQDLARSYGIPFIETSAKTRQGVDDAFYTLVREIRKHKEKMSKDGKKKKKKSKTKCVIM
T1 sequence (P01116 1-188 isoform P01116-2): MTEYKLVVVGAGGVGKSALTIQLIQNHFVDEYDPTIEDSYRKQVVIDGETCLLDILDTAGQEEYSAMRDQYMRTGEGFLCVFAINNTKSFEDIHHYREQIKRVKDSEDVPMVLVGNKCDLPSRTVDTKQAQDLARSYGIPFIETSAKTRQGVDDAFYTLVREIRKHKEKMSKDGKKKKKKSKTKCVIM

Row | Compound | IC50 (KRAS WT) | IC50 (KRAS G12S)
1 | CC#CC(=O)N1CC(CN2CCOc3c(Cl)c(-c4ccc(F)c5sc(N)c(C#N)c45)c(F)c4nc(OC[C@@]56CCCN5C[C@H](F)C6)nc2c34)C1 [Compound 456, 2-amino-4-(4-((1-(but-2-ynoyl)azetidin-3-yl)methyl)-8-chloro-10-fluoro-2-(((2R,7aS)-2-fluorotetrahydro-1H-pyrrolizin-7a (5H)-yl)methoxy)-5,6-dihydro-4H-[1,4]oxazepino[5,6,7-de]quinazolin-9-yl)-7-fluorobenzo[b]thiophene-3-carbonitrile] | < 500 nM | < 500 nM
2 | CC1C(CN2c3nc(OC[C@@]45CCCN4C[C@H](F)C5)nc4c(F)c(-c5ccc(F)c6sc(N)c(C#N)c56)c(Cl)c(c34)OC[C@@H]2[C@H](C)O)CCN1C(=O)n1ccnc1 (stereo partly drawn) [Compound 457, 4-((5R)-4-((1-(1H-imidazole-1-carbonyl)-2-methylpyrrolidin-3-yl)methyl)-8-chloro-10-fluoro-2-(((2R,7aS)-2-fluorotetrahydro-1H-pyrrolizin-7a(5H)-yl)methoxy)-5-((S)-1-hydroxyethyl)-5,6-dihydro-4H-[1,4]oxazepino[5,6,7-de]quinazolin-9-yl)-2-amino-7-fluorobenzo[b]thiophene-3-carbonitrile] | < 500 nM | < 500 nM
3 | C/C(C#N)=C/C(=O)N1CC(CN2CCOc3c(Cl)c(-c4ccc(F)c5sc(N)c(C#N)c45)c(F)c4nc(OC[C@@]56CCCN5C[C@H](F)C6)nc2c34)C1 [Compound 459, 2-amino-4-(8-chloro-4-((1-((Z)-3-cyanobut-2-enoyl)azetidin-3-yl)methyl)-10-fluoro-2-(((2R, 7aS)-2-fluorotetrahydro-1H-pyrrolizin-7a(5H)-yl)methoxy)-5,6-dihydro-4H-[1,4]oxazepino[5,6,7-de]quinazolin-9-yl)-7-fluorobenzo [b]thiophene-3-carbonitrile] | < 500 nM | < 500 nM
4 | C[C@@H]1[C@H](N2C[C@H](C)Oc3nc(-c4ccc(F)c5sc(N)c(C#N)c45)c(F)c4nc(OC[C@@]56CCCN5C[C@H](F)C6)nc2c34)CCN1C(=O)n1cnc(Cl)n1 [Compound 461, 2-amino-4-((S)-10-((2R,3R)-1-(3-chloro-1H-1,2,4-triazole-1-carbonyl)-2-methylpyrrolidin-3-yl)-4-fluoro-2-(((2R,7aS)-2-fluorotetrahydro-1H-pyrrolizin-7a(5H)-yl)methoxy)-8-methyl-9,10-dihydro-8H-7-oxa-1,3,6,10-tetraazacyclohepta[de]naphthalen-5-yl)-7-fluorobenzo[b]thiophene-3-carbonitrile] | < 500 nM | < 500 nM
5 | N#Cc1c(N)sc2c(F)ccc(-c3c(Cl)c4c5c(nc(OC[C@@]67CCCN6C[C@H](F)C7)nc5c3F)N(CC3CN(C(=O)C5=CCCC5)C3)CCO4)c12 [Compound 462, 2-amino-4-(8-chloro-4-((1-(cyclopent-1-ene-1-carbonyl)azetidin-3-yl)methyl)-10-fluoro-2-(((2R,7aS)-2-fluorotetrahydro-1H-pyrrolizin-7a(5H)-yl)methoxy)-5,6-dihydro-4H-[1,4]oxazepino [5,6,7-de]quinazolin-9-yl)-7-fluorobenzo[b]thiophene-3-carbonitrile] | < 500 nM | < 500 nM
6 | N#Cc1c(N)sc2c(F)ccc(-c3c(Cl)c4c5c(nc(OC[C@@]67CCCN6C[C@H](F)C7)nc5c3F)N(CC3(O)CN(C(=O)n5ccnc5)C3)CCO4)c12 [Compound 463, 2-amino-4-(8-chloro-10-fluoro-2-(((2R,7aS)-2-fluorotetrahydro-1H-pyrrolizin-7a(5H)-yl)methoxy)-4-((3-hydroxy-1-(1H-imidazole-1-carbonyl)azetidin-3-yl)methyl)-5,6-dihydro-4H-[1,4]oxazepino [5,6,7-de]quinazolin-9-yl)-7-fluorobenzo[b]thiophene-3-carbonitrile] | < 500 nM | < 500 nM
7 | Cc1cn(C(=O)N2CC[C@@H](N3C[C@H](C)Oc4c(Cl)c(-c5ccc(F)c6sc(N)c(C#N)c56)c(F)c5nc(OC[C@@]67CCCN6C[C@H](F)C7)nc3c45)[C@H]2C)c(C)n1 [Compound 464, 2-amino-4-((6S)-8-chloro-4-((2R,3R)-1-(2,4-dimethyl-1H-imidazole-1-carbonyl)-2-methylpyrrolidin-3-yl)-10-fluoro-2-(((2R,7aS)-2-fluorotetrahydro-1H-pyrrolizin-7a(5H)-yl)methoxy)-6-methyl-5,6-dihydro-4H-[1,4]oxazepino[5,6,7-de]quinazolin-9-yl)-7-fluorobenzo[b] thiophene-3-carbonitrile] | < 500 nM | < 500 nM
8 | C=CC(=O)N1CC(CN2CCOc3c(Cl)c(-c4ccc(F)c5sc(N)c(C#N)c45)c(F)c4nc(OC[C@@]56CCCN5C[C@H](F)C6)nc2c34)C1 [Compound 466, 4-(4-((1-acryloylazetidin-3-yl)methyl)-8-chloro-10-fluoro-2-(((2R,7aS)-2-fluorotetrahydro-1H-pyrrolizin-7a(5H)-yl)methoxy)-5,6-dihydro-4H-[1,4]oxazepino[5,6,7-de]quinazolin-9-yl)-2-amino-7-fluorobenzo[b]thiophene-3-carbonitrile] | < 500 nM | < 500 nM
9 | CN(C)C/C=C/C(=O)N1CC(CN2CCOc3c(Cl)c(-c4ccc(F)c5sc(N)c(C#N)c45)c(F)c4nc(OC[C@@]56CCCN5C[C@H](F)C6)nc2c34)C1 [Compound 469, 2-amino-4-(8-chloro-4-((1-((E)-4-(dimethylamino)but-2-enoyl)azetidin-3-yl)methyl)-10-fluoro-2-(((2R, 7aS)-2-fluorotetrahydro-1H-pyrrolizin-7a(5H)-yl)methoxy)-5,6-dihydro-4H-[1,4]oxazepino[5,6,7-de]quinazolin-9-yl)-7-fluorobenzo [b]thiophene-3-carbonitrile] | < 500 nM | < 500 nM
10 | C=CC(=O)N1CC[C@@H](N2CCOc3c(Cl)c(-c4ccc(F)c5sc(N)c(C#N)c45)c(F)c4nc(OC[C@@]56CCCN5C[C@H](F)C6)nc2c34)[C@H]1C [Compound 470, 4-(4-((2R,3R)-1-acryloyl-2-methylpyrrolidin-3-yl)-8-chloro-10-fluoro-2-(((2R, 7aS)-2-fluorotetrahydro-1H-pyrrolizin-7a(5H)-yl)methoxy)-5,6-dihydro-4H-[1,4]oxazepino[5,6,7-de]quinazolin-9-yl)-2-amino-7-fluorobenzo[b]thiophene-3-carbonitrile] | < 500 nM | < 500 nM
11 | CC(C)[C@@H]1[C@H](CN2CCOc3c(Cl)c(-c4ccc(F)c5sc(N)c(C#N)c45)c(F)c4nc(OC[C@@]56CCCN5C[C@H](F)C6)nc2c34)CN1C(=O)n1cnc(F)n1 [Compound 471, 2-amino-4-(8-chloro-10-fluoro-4-(((2R,3R)-1-(3-fluoro-1H-1,2,4-triazole-1-carbonyl)-2-isopropylazetidin-3-yl)methyl)-2-(((2R,7aS)-2-fluorotetrahydro-1H-pyrrolizin-7a (5H)-yl)methoxy)-5,6-dihydro-4H-[1,4]oxazepino[5,6,7-de]quinazolin-9-yl)-7-fluorobenzo[b]thiophene-3-carbonitrile] | < 500 nM | < 500 nM
12 | N#Cc1c(N)sc2c(F)ccc(-c3c(Cl)c4c5c(nc(OC[C@@]67CCCN6C[C@H](F)C7)nc5c3F)N(CC3CN(C(=O)/C=C/C5COC5)C3)CCO4)c12 [Compound 475, 2-amino-4-(8-chloro-10-fluoro-2-(((2R,7aS)-2-fluorotetrahydro-1H-pyrrolizin-7a(5H)-yl)methoxy)-4-((1-((E)-3-(oxetan-3-yl)acryloyl)azetidin-3-yl)methyl)-5,6-dihydro-4H-[1,4]oxazepino[5,6,7-de]quinazolin-9-yl)-7-fluorobenzo[b] thiophene-3-carbonitrile] | < 500 nM | < 500 nM
13 | COCC1([C@@H]2[C@H](CN3CCOc4c(Cl)c(-c5ccc(F)c6sc(N)c(C#N)c56)c(F)c5nc(OC[C@@]67CCCN6C[C@H](F)C7)nc3c45)CN2C(=O)n2cnc(C)c2)CC1 [Compound 477, 2-amino-4-(8-chloro-10-fluoro-2-(((2R,7aS)-2-fluorotetrahydro-1H-pyrrolizin-7a(5H)-yl)methoxy)-4-(((2S,3R)-2-(1-(methoxymethyl)cyclopropyl)-1-(4-methyl-1H-imidazole-1-carbonyl)azetidin-3-yl)methyl)-5,6-dihydro-4H-[1,4]oxazepino[5,6,7-de]quinazolin-9-yl)-7-fluorobenzo [b]thiophene-3-carbonitrile] | < 500 nM | < 500 nM
14 | C[C@@H]1[C@H](N2CCCOc3c(Cl)c(-c4ccc(F)c5sc(N)c(C#N)c45)c(F)c4nc(OC[C@@]56CCCN5C[C@H](F)C6)nc2c34)CCN1C(=O)n1ccnc1 [Compound 481, 4-(4-((2R,3R)-1-(1H-imidazole-1-carbonyl)-2-methylpyrrolidin-3-yl)-9-chloro-11-fluoro-2-(((2R,7aS)-2-fluorotetrahydro-1H-pyrrolizin-7a(5H)-yl)methoxy)-4,5,6,7-tetrahydro-[1,5]oxazocino[4,3,2-de]quinazolin-10-yl)-2-amino-7-fluorobenzo[b]thiophene-3-carbonitrile] | < 500 nM | < 500 nM
15 | CC#CC(=O)N1C[C@@H](CN2CCOc3c(Cl)c(-c4ccc(F)c5sc(N)c(C#N)c45)c(F)c4nc(OC[C@@]56CCCN5C[C@H](F)C6)nc2c34)[C@H]1C1(C)CC1 [Compound 484, 2-amino-4-(4-(((2S,3R)-1-(but-2-ynoyl)-2-(1-methylcyclopropyl)azetidin-3-yl)methyl)-8-chloro-10-fluoro-2-(((2R,7aS)-2-fluorotetrahydro-1H-pyrrolizin-7a(5H)-yl)methoxy)-5,6-dihydro-4H-[1,4]oxazepino [5,6,7-de]quinazolin-9-yl)-7-fluorobenzo[b]thiophene-3-carbonitrile] | < 500 nM | < 500 nM
